Reference: US12331044B2, “Inhibitors of histone deacetylase useful for the treatment or prevention of HIV infection” (Merck Sharp & Dohme LLC, priority 2018, dated 2025)
Where two headings read alike, the source gives them in different places.

Key:
human HDAC8 = human HDAC8 (Homo sapiens (Human), UniProt Q9BY41); assay: HDAC8 inhibition assay (modified FLUOR DE LYS, 384-well); type: biochemical; conditions: […] enzyme, 200 μM substrate BML-KI178, 3 h pre-incubation; read-out: HDAC8 IC50
Procedure: The histone deacetylase activities of HDAC1, HDAC2, HDAC3, HDAC6, and HDAC8 were measured in modified FLUOR DE LYS assays in 384-well format. In this assay, HDAC enzymes are initially incubated with an F-acetyl (or -trifluoroacetyl)-L-lysine-containing substrate with a C-terminal amide having aminomethylcoumarin as the amine component. HDACs cleave the F-acetyl group, rendering the resulting product susceptible to AMC cleavage by trypsin. The released AMC is then detected by its fluorescence. […] All steps were performed at room temperature (23° C.). The assay was performed by pre-incubating serial dilutions of test compounds with the target HDAC prior to initiation with substrate. […] Final conditions used for each assay were: 1. […] The reactions were stopped and developed by addition of 30 ul of HDAC developer solution containing a saturating level of HDAC inhibitor as follows: 1. […] For data analysis, background subtracted product (fluorescence) vs. time data for each inhibitor concentration was fitted using a 4-parameter fit.

human HDAC1 = human HDAC1 (Homo sapiens (Human), UniProt Q13547)
human HDAC2 = human HDAC2 (Homo sapiens (Human), UniProt Q92769); assay: HDAC2 inhibition assay (modified FLUOR DE LYS, 384-well); type: biochemical; conditions: […] enzyme, 40 μM substrate BML-KI104, 3 h pre-incubation; read-out: HDAC2 IC50
HDAC6 = HDAC6 (Homo sapiens (Human), UniProt Q9UBN7)
[1] = molecular target: human HDAC3/SMRT heterodimer (Homo sapiens (Human), UniProt O15379)
KARN cells (Jurkat 2C4) = assay: cells; conditions: Homo sapiens
[2] = read-out: Karn EC50 nM 0.1% NHS, 0.1% normal human serum, luciferase induction, 2 μM SAHA = 100%
[3] = read-out: Karn EC50 nM 5% NHS, 5% normal human serum, luciferase induction, 2 μM SAHA = 100%

Sequence of human HDAC8 (Q9BY41 whole entry): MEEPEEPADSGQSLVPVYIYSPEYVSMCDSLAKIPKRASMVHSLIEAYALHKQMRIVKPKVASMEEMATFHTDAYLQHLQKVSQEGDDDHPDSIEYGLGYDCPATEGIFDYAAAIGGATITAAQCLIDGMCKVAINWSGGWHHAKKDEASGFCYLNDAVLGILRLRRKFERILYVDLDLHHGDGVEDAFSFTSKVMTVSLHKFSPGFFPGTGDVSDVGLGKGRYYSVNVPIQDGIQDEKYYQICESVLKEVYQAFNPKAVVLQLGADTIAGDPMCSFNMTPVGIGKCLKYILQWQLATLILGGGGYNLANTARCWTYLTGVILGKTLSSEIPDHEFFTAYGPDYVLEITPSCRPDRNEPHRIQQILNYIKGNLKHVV
Sequence of human HDAC2 (Q92769 whole entry): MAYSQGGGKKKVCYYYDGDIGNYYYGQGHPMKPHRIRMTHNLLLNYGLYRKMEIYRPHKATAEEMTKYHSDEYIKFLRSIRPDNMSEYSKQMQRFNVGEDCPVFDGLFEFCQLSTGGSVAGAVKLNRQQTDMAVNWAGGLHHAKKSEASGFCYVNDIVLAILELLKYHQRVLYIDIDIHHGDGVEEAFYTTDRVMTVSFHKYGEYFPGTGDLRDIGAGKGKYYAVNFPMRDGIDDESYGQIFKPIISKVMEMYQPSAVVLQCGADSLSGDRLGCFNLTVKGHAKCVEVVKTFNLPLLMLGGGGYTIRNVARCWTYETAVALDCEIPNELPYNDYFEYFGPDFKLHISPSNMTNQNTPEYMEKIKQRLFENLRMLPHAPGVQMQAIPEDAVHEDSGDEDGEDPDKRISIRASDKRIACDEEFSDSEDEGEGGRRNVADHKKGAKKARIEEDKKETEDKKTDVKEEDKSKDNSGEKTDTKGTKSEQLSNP
Sequence of human HDAC3/SMRT heterodimer (O15379 whole entry): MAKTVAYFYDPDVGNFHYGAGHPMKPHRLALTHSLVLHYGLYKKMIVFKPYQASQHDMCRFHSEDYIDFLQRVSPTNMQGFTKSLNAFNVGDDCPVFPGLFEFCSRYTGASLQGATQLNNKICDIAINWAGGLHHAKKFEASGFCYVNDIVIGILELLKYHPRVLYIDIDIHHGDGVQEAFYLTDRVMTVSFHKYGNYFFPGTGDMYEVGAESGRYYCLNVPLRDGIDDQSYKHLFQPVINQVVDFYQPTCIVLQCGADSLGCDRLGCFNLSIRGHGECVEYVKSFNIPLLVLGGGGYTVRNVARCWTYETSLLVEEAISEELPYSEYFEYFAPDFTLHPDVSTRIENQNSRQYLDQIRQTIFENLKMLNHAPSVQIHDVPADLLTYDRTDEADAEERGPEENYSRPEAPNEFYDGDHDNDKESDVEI
Sequence of human HDAC3/SMRT heterodimer (Q9Y618 1-899 partner): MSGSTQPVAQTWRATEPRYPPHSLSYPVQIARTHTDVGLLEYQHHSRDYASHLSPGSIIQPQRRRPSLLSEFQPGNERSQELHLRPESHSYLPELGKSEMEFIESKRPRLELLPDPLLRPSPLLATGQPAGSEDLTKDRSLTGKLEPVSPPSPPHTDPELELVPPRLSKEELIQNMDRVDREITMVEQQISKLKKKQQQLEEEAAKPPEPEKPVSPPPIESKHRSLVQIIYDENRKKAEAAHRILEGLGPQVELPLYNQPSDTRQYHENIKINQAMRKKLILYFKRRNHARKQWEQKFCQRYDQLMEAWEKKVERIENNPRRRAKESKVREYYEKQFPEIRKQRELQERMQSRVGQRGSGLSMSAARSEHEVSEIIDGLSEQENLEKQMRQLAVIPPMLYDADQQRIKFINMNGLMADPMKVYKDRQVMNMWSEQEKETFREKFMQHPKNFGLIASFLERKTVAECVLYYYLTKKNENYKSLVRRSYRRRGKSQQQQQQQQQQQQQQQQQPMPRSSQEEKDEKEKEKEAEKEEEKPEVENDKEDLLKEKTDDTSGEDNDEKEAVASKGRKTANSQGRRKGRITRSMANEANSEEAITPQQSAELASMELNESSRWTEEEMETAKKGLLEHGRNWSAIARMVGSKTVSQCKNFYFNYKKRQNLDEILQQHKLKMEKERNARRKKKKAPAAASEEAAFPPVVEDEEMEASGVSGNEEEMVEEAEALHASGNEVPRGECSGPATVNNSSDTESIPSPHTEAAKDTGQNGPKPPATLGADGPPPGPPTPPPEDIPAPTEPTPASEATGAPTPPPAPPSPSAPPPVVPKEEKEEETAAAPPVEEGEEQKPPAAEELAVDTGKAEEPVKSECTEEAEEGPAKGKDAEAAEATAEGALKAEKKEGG
Sequence of HDAC6 (Q9UBN7 whole entry): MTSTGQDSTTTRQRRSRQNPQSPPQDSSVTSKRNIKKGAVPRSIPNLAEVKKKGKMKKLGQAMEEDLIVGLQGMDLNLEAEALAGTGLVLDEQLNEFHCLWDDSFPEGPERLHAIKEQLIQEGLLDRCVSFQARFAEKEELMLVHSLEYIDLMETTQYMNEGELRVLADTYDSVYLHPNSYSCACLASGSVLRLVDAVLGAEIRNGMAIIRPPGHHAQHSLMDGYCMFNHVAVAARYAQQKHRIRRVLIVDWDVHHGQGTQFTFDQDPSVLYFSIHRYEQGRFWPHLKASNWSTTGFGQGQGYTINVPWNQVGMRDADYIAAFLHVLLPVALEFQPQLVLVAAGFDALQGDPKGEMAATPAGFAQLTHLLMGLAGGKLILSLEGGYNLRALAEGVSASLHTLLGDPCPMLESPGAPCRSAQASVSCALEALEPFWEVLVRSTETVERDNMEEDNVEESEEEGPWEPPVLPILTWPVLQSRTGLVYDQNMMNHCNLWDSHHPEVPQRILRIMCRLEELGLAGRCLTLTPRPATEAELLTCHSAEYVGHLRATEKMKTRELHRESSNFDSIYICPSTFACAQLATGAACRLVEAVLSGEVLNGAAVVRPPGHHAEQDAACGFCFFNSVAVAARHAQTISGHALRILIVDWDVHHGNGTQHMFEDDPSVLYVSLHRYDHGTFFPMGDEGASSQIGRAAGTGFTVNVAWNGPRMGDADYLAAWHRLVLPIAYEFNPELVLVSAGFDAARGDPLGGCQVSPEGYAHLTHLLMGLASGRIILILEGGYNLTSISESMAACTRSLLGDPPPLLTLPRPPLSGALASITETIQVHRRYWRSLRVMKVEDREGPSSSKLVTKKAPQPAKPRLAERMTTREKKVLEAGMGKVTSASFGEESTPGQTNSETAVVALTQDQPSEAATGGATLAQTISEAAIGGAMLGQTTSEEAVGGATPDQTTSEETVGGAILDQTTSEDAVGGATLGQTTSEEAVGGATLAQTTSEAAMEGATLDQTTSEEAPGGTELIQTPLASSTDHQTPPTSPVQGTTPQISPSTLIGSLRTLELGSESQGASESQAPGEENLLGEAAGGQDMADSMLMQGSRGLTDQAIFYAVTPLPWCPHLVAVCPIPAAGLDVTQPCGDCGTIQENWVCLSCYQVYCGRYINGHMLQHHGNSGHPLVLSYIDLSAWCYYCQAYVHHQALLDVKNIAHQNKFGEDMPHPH
Sequence of human HDAC1 (Q13547 whole entry): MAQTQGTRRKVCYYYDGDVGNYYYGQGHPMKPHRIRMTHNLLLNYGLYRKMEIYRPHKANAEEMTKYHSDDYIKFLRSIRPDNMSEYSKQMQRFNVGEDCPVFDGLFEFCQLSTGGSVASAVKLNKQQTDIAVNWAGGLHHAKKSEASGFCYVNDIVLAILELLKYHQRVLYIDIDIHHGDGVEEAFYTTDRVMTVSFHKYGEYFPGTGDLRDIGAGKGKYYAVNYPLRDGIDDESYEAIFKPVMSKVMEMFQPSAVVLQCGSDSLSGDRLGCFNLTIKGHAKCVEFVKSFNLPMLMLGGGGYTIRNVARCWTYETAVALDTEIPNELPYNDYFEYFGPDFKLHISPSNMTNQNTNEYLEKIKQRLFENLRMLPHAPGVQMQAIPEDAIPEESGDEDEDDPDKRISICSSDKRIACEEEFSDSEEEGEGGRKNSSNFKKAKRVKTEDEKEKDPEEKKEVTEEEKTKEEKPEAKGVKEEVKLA

| Structure (SMILES) | IC50 (human HDAC8) [nM] | IC50 (human HDAC1) [nM] | IC50 (human HDAC2) [nM] | IC50 (HDAC6) [nM] | IC50 [1] [nM] | EC50 (KARN cells (Jurkat 2C4); [2]) [nM] | EC50 (KARN cells (Jurkat 2C4); [3]) [nM] |
| --- | --- | --- | --- | --- | --- | --- | --- |
| COc1cc2c(ccc(=O)n2C)cc1-c1cnc([C@H](CCCCCC(=O)c2ccon2)NC(=O)CN(C)C)[nH]1 [Example 93] | 3.5 | 0.37 | 2.2 | 4500 | 0.46 | 6.6 | 14 |
| CCn1ccc2cc(-c3cnc([C@H](CCCCCC(=O)c4ncco4)NC(=O)CN(C)C)[nH]3)c(OC)cc2c1=O [Example 96, (S)-2-(dimethylamino)-N-(1-(5-(2-ethyl-7-methoxy-1-oxo-1,2-dihydroisoquinolin-6-yl)-1H-imidazol-2-yl)-7-(oxazol-2-yl)-7-oxoheptyl)acetamide] | 57 | 0.51 | 3.8 | 920 | 0.94 | 14 | 24 |
| COc1cc2c(ccc(=O)n2C)cc1-c1cnc([C@H](CCCCCC(=O)c2ccon2)NC(=O)C2CN(C)C2)[nH]1 [Example 102, (S)-N-(7-(isoxazol-3-yl)-1-(5-(7-methoxy-1-methyl-2-oxo-1,2-dihydroquinolin-6-yl)-1H-imidazol-2-yl)-7-oxoheptyl)-1-methylazetidine-3-carboxamide] | 3.1 | 0.24 | 0.78 | > 900 | 0.25 | 170 | 270 |
| COc1cc2nc(C)ccc2cc1-c1cnc([C@H](CCCCCC(=O)c2ccon2)NC(=O)C2CN(C)C2)[nH]1 [Example 103, (S)-N-(7-(isoxazol-3-yl)-1-(5-(7-methoxy-2-methylquinolin-6-yl)-1H-imidazol-2-yl)-7-oxoheptyl)-1-methylazetidine-3-carboxamide] | 3 | 0.13 | 0.44 | > 900 | 0.18 | 6 | 8.3 |
| CN1CCC2(CC1)C[C@@H]2C(=O)N[C@@H](CCCCCC(=O)c1ccon1)c1[nH]c(-c2ccccc2F)nc1Cl [Example 112, (S)-N-((S)-1-(4-chloro-2-(2-fluorophenyl)-1H-imidazol-5-yl)-7-(isoxazol-3-yl)-7-oxoheptyl)-6-methyl-6-azaspiro[2.5]octane-1-carboxamide] | 23 | 0.083 | 0.25 | 4600 | 0.035 | 1.4 | 1.4 |
| COc1cc2nc(C)ccc2cc1-c1cnc([C@H](CCCCCC(=O)c2ncco2)NC(=O)[C@H]2CC23CCN(C)CC3)o1 [Example 113, (S)-N-((S)-1-(5-(7-methoxy-2-methylquinolin-6-yl)oxazol-2-yl)-7-(oxazol-2-yl)-7-oxoheptyl)-6-methyl-6-azaspiro[2.5]octane-1-carboxamide] | 180 | 0.41 | 2.5 | 200 | 0.58 | 18 | 12 |
| COc1nc(C2CC2)ccc1-c1c[nH]c([C@H](CCCCCC(=O)c2ncco2)NC(=O)[C@H]2CC23CCN(C)CC3)n1 [Example 115, (S)-N-((S)-1-(4-(6-cyclopropyl-2-methoxypyridin-3-yl)-1H-imidazol-2-yl)-7-(oxazol-2-yl)-7-oxoheptyl)-6-methyl-6-azaspiro[2.5]octane-1-carboxamide] | 51 | 0.66 | 3.9 | 300 | 0.84 | 37 | 58 |
| Cn1cc2cc(-n3ccc([C@@H](N)CCCCCC(=O)c4ncco4)n3)ccc2n1 [Example 128, (7S)-7-amino-7-[1-(2-methyl-2H-indazol-5-yl)-1H-pyrazol-3-yl]-1-(1,3-oxazol-2-yl)heptan-1-one] | 4300 | 8 | 55 | 45000 | 10 | 1200 | 1500 |
